Experimental data reported in patent US6103888A, “Mammalian cationic proteins having lipopolysaccharide binding and anti-coagulant activity” (priority 1999, dated 2000).

What was measured:
[1] = test system: Salmonella minnesota ReLPS sensitized sheep erythrocytes; test: LPS hemagglutination assay (MAC); assay type: binding
Description: For hemagglutination assays, erythrocytes were sensitized with LPS as follows. One ml of 1% erythrocyte suspension (human 0 type, C3H/HeN mouse or sheep) was mixed with 0.2 ml of LPS solution and incubated at 37° C. for 30 min, followed by washing with phosphate buffered saline (PBS), and then the concentration of suspension was adjusted to 1.0%. In the case of S-LPS, the solution was heated at 100° C. for 1 hour before sensitization of erythrocytes. […] Activity of CAP was expressed as a minimum agglutinating concentration (MAC) of CAP. According to the method of Kirikae et al. (1986) Microbiol. Immunol. 30:269-274, 50 μl of 2-fold serial dilution of Re-LPS was added to 50 μl of 1.0% rabbit erythrocyte suspension, and incubated at 37° C. for 3 hour. Minimum agglutinating concentration of Re-LPS was expressed as 1 HA unit.

prothrombin (factor II) [2] = target: prothrombin (factor II) (Homo sapiens, UniProt P00734); test: Prothrombin activation by Echis Carinatus venom (ECV); assay type: biochemical
Description: Prothrombin activation by Echis Carinatus venom (ECV). A reaction mixture of prothrombin (factor II) (0.1 unit/ml, 200 μl), ECV (1 unit/ml, 200 μl), various concentration of peptide (70 μl), 50 μl of 25 mM-CaCl2 and 180 μl of Tris buffer was incubated at 37° C. for 10 min. To 300 μl of the reaction mixture, 60 μl of 4 mM-thrombin substrate and 240 μl of buffer was added and further incubated for 15 min.

Salmonella typhimurium = test: Antibacterial CFU assay; conditions: for anti-bacterial activity (CFU), in words: Salmonella typhimurium, smooth strain; for effect on CFU of S. typhimurium: high concentrations alone and in various combinations
Salmonella minnesota Re = test: Antibacterial CFU assay
Human plasma = test: Prothrombin time (PT); assay type: biochemical
Description: Prothrombin time (PT). Human plasma (100 μl) was incubated with 100 μl of each peptide at 37° C. for 3 min., then 100 μl of tissue factor (250 μg/ml) CaCl2 was added and clotting time was measured.

[3] = test system: thioglycollate-stimulated murine peritoneal macrophages; test: LPS-induced tissue factor generation by macrophages (clotting assay); assay type: cell-based; conditions: peptides 1 μg/ml incubated with S. minnesota smooth LPS 5 minutes; 6 hr
Description: Tissue factor assay. Salmonella minnesota smooth LPS was incubated with each peptide (1 μg/ml) for 5 min., then the mixture was added to peritoneal murine macrophages obtained 4 days after thioglycollate stimulation. Cells were cultured for 6 hours prior to assay of tissue factor by clotting assay.
Various concentrations of Salmonella minnesota smooth LPS were incubated with each peptide (197 (RNIP), 36-1, 32-1, and 50-2) at 37° C. for 5 minutes prior to mixing with thioglycollate-stimulated murine peritoneal macrophages. Production of tissue factor after 6 hr. was measured by clotting assay. […] In the absence of LPS no tissue factor is synthesized by these cells.

RAW 264.7 cells = test: LPS- or IFNγ-induced reactive nitrogen intermediate (RNI) production, Griess nitrite assay; assay type: cell-based, murine; conditions: macrophages / RAW 264.7 cells
Description: From the sequence of the CAP18 cDNA, it was apparent that the putative N-terminal peptide of CAP18 was in fact an internal fragment of the CAP18 protein. We therefore tried to reconfirm the original protein sequence. Neutrophil-derived heparin bound cationic proteins were prepared as described above and applied to a C18 reverse phase HPLC (FIG. 1). We sequenced the major peaks. Peaks at fractions 14.5 and 15.2 correspond to defensins MCP1 and MCP2 (Territo et al. (1989) J. Clin. Invest. 84:2017-2019), respectively. Fraction 25.8 is macrophage related protein 14 (MRP14) (Odink et al. (1987) Nature 330:80-82). The fraction at 20.3 minutes corresponds to a fragment of CAP18 of approximately 4-5 kD. […] The murine macrophage cell line RAW 264.7 (obtained from ATCC) and thioglycollate-elicited murine peritoneal exudate cells are used to produce RNI. Cells are cultured at 1×10^6 /ml. in RPMI-1640 +2.5% FCS in 24 well plates in the presence or absence of different concentrations of LPS or murine rlFNγ. After 24 hr. incubation at 37° C., the cell free supernatant is collected and tested for the presence of RNI. Accumulation of nitrite in the medium is measured by a calorimetric assay based on the Griess reaction (Green et al. (1982) Anal. Biochem. 126:11) using sodium nitrite as standards. Sample (50 μl) is mixed with 50 μl of Griess reagent (1% sulfanilamide, 0.1% naphthalene diamine dihydrochloride, 2.5% H3 PO4) and after 10 min. at room temperature absorbance is read at 570 nm.

prothrombin (factor II) [4] = target: prothrombin (factor II)
tissue factor generation = test: Effect of CAP-37 on LPS-induced tissue factor generation; assay type: cell-based; conditions: for Tissue factor units / Tissue factor units, value in parentheses (ratio to control): CAP-37 15 HA
Description: Table 6 presents a comparison of the effect of RNIP, CAP18, and defensins HP-1 and HP-2 (Territo et al. (1989) J. Clin. Invest. 84:2017-2019) on LPS-induced tissue factor generation. Tissue factor assays were performed as follows. Mouse peritoneal cells were elicted with an intraperitoneal injection of thioglycolate medium and harvested 5-days later by irrigation with pyrogen-free saline. The cells were washed with RPMI 1640 medium, counted and resuspended at a concentration of 1.5-2.0×10^6 /ml in serum-free RPMI medium containing glutamine (0.29 mg/ml), penicillin (50 units/ml) and streptomycin ([…]). Adherent cells were prepared by incubating 10 ml of a cell suspension (in RPMI 1640 media in sterile culture bottle (Nunclon, 50 ml, Inter Med) for 60 min. at 37° C. in a 5% CO2 atmosphere. The plastic adherent cells were recovered by scraping of the bottle with a sterile rubber policeman. The adherent cells were then washed twice with RPMI media, resuspended in serum-free medium (1×10^6 /ml) in culture tube (Nunc cryotube, Inter Med), and stimulated with graded doses of LPS for 6 hr. at 37° C. in a 5% CO2. The cell suspension was centrifuged and cell pellet was frozen at -80° C. until clotting assays were run.
Veronal buffered saline (VBS) was added to the cell pellet, lysed by 3 cycles of freeze/thaw and sonicated for 10 sec with a hand-held sonicator microbe (Handy Sonic, model UR-20P, Tomy Seiko LTD, Tokyo). Tissue factor activity was tested in modified unactivated partial thromboplastin time (7). One tenth ml of cell lysate (1×10^6 /ml) was preincubated with mouse plasma at 37° C. for 3 min. Then 0.1 ml of 25 mM-CaCl2 which contains phospholipid was added to the mixture and clotting time was measured using a fibrometer (Bio Quest Division, Becton Dickinson, Cokeysville, USA). A standard curve obtained from serial two-fold dilutions of rabbit brain thromboplastic (Simplastin, Ono Pharmaceutical Co.) was used to transpose tissue factor activity into arbitrary tissue factor units (1 μg/ml) suspension of rabbit brain was assigned a value of 1,000 units).
.dagger.LPS was incubated with CAP37 at 37° C. for 2 hours, and th
mixture was added to cells, then cultured for 6 hours.

Molecule: 21-1: synthetic rabbit RNIP fragment, amino acids 135-151 of SEQ ID NO:4 (GLRKRLRKFRNKIKEKL) [Peptide 21-1]
- Hemagglutination [MAC], minimum agglutinating concentration [1]: > 125 µg/mL

Molecule: 32-1: synthetic rabbit RNIP fragment, amino acids 135-143 of SEQ ID NO:4 (GLRKRLRKF) [Peptide 32-1]
- Hemagglutination [MAC], minimum agglutinating concentration [1]: > 125 µg/mL
- inhibition of Echis carinatus venom activation of purified factor II to IIa (in words) (prothrombin (factor II) [2]): inactive
- effect of pretreatment on bacterial killing by peptide 197 (Salmonella typhimurium; S. typhimurium pretreated with peptide 32-1, then peptide 197): no inhibition or augmentation
- anti-bacterial activity (CFU), in words (Salmonella typhimurium): not active
- effect on CFU of S. typhimurium (Salmonella typhimurium): No effect
- anti-bacterial activity (CFU), in words (Salmonella minnesota Re): not active
- inhibition of the prothrombin time (PT), in words (Human plasma): inactive
- inhibition of LPS induced tissue factor (in words) [3]: fail to inhibit

Molecule: 34-1: synthetic rabbit RNIP fragment, amino acids 140-166 of SEQ ID NO:4 (LRKFRNKIKEKLKKIGQKIQGLLPKLA) [Peptide 34-1]
- Hemagglutination [MAC], minimum agglutinating concentration [1]: > 125 µg/mL

Molecule: 50-1: synthetic rabbit RNIP fragment, amino acids 147-171 of SEQ ID NO:4 (IKEKLKKIGQKIQGLLPKLAPRTDY) [Peptide 50-1]
- Hemagglutination [MAC], minimum agglutinating concentration [1]: > 125 µg/mL

Molecule: 50-2: synthetic rabbit RNIP fragment, amino acids 147-171 of SEQ ID NO:4 (IKEKLKKIGQKIQGLLPKLAPRTDY) [Peptide 50-2]
- Hemagglutination [MAC], minimum agglutinating concentration [1]: > 125 µg/mL
- inhibition of Echis carinatus venom activation of purified factor II to IIa (in words) (prothrombin (factor II) [2]): inactive
- anti-bacterial activity (CFU), in words (Salmonella typhimurium): not active
- effect on CFU of S. typhimurium (Salmonella typhimurium): No effect
- anti-bacterial activity (CFU), in words (Salmonella minnesota Re): not active
- inhibition of the prothrombin time (PT), in words (Human plasma): inactive
- inhibition of LPS induced tissue factor (in words) [3]: fail to inhibit

Molecule: 52-1: synthetic rabbit RNIP fragment, amino acids 143-169 of SEQ ID NO:4 (FRNKIKEKLKKIGQKIQGLLPKLAPRT) [Peptide 52-1]
- Hemagglutination [MAC], minimum agglutinating concentration [1]: > 125 µg/mL

Molecule: 52-2: synthetic rabbit RNIP fragment, amino acids 143-170 of SEQ ID NO:4 (FRNKIKEKLKKIGQKIQGLLPKLAPRTD) [Peptide 52-2]
- Hemagglutination [MAC], minimum agglutinating concentration [1]: > 125 µg/mL

Molecule: 52-3: synthetic rabbit RNIP fragment, printed as amino acids 132-171 of SEQ ID NO:4 (EPTGLRKRLRKFRNKIKEKLKKIGQKIQGLLPKLAPRTDY) [Peptide 52-3]
- Hemagglutination [MAC], minimum agglutinating concentration [1]: > 125 µg/mL

Molecule: 54-1: synthetic rabbit RNIP fragment, amino acids 139-170 of SEQ ID NO:4 (RLRKFRNKIKEKLKKIGQKIQGLLPKLAPRTD) [Peptide 54-1]
- Hemagglutination [MAC], minimum agglutinating concentration [1]: > 125 µg/mL

Molecule: 54-2: synthetic rabbit RNIP fragment, amino acids 139-171 of SEQ ID NO:4 (RLRKFRNKIKEKLKKIGQKIQGLLPKLAPRTDY) [Peptide 54-2]
- Hemagglutination [MAC], minimum agglutinating concentration [1]: > 125 µg/mL

Molecule: 187: synthetic rabbit RNIP fragment, amino acids 151-171 of SEQ ID NO:4 (LKKIGQKIQGLLPKLAPRTDY) [Peptide 187]
- inhibition of LPS-induced RNI production (in words) (RAW 264.7 cells): inactive
- Hemagglutination [MAC], minimum agglutinating concentration [1]: > 125 µg/mL

Molecule: polymyxin B [reference compound]
- inhibition of LPS-induced RNI production (in words) (RAW 264.7 cells): inhibition

Molecule: GLRKRLRKFRNKIKEKLKKIGQKIQGLLPKLA [synthetic rabbit RNIP peptide 36-1]
- IC50, factor II activation by Xa (prothrombin (factor II) [4]): < 30 nM

B1: CAP-37: another cationic peptide, azurocidin (CAP37) (Morgan et al.) (protein, UniProt P20160 27-248, looked up)
Azurocidin: IVGGRKARPRQFPFLASIQNQGRHFCGGALIHARFVMTAASCFQSQNPGVSTVVLGAYDLRRRERQSRQTFSISSMSENGYDPQQNLNDLMLLQLDREANLTSSVTILPLPLQNATVEAGTRCQVAGWGSQRSGGRLSRFPRFVNVTVTPEDQCRPNNVCTGVLTRRGGICNGDGGTPLVCEGLAHGVASFSLGPCGRGPDFFTRVALFRDWIDGVLNNPGP
- inhibition of tissue factor generation (in words) (tissue factor generation): unable to inhibit tissue factor generation
- Tissue factor units (tissue factor generation; LPS 0.1 μg/ml): 383 ± 307 units /1 × 10^5 cells
- Tissue factor units, value in parentheses (ratio to control) (tissue factor generation; LPS 0.1 μg/ml): 2.3
- Tissue factor units (tissue factor generation; LPS 1.0 μg/ml): 648 ± 343 units /1 × 10^5 cells
- Tissue factor units, value in parentheses (ratio to control) (tissue factor generation; LPS 1.0 μg/ml): 3.9
- Tissue factor units (tissue factor generation; no LPS): 183 ± 67 units /1 × 10^5 cells
- Tissue factor units, value in parentheses (ratio to control) (tissue factor generation; no LPS): 1.1

Molecule: GLRKRLRKFRNKIKEKLKKIGQKIQGLLPKLAPRTDY [synthetic rabbit RNIP peptide 197]
- IC50, factor II activation by Xa (prothrombin (factor II) [4]): 50 nM
